Here are results for two molecules from US8187373B2, “Printing inks for offset and/or high printing containing NIR absorbers and NIR absorbers soluble in offset and/or high printing inks” (BASF SE, priority 2004, dated 2012).

Series [1] in a line: Extinction of a thin layer of printing varnish containing NIR absorber (absorption spectrum 400-1000 nm). The format is physicochemical. The settings on record: 1.0% by weight NIR absorber. As for the experimental part: Two conventional varnishes for the preparation of offset printing inks were used for the test. Varnishes are prepared formulations comprising binder and solvent, but as yet without colorant. In this way, it is possible to study the behavior of the NIR absorber also spectroscopically without interference by the colorant.
A varnish for the preparation of heatset inks comprising about 45% by weight of a low-aromatics mineral oil (boiling range from 240 to 270° C.), about 45% by weight of a rosin-modified phenol resin and about 10% by weight of an alkyd resin was used, as well as a varnish for the preparation of sheet-fed offset inks comprising about 45% by weight of a low-aromatics mineral oil (boiling range from 260 to 290° C.), about 45% by weight of a rosin-modified phenol resin and about 10% by weight of linseed oil.
Furthermore, a thin layer of above liquids was produced and was investigated spectroscopically. For this purpose, the above liquids were diluted 1:5 with dichloromethane, and the resulting solution was applied to a microscope slide by means of a knife coater so that, after evaporation of the dichloromethane, a layer of about 2 μm thick remained. An absorption spectrum (400-1000 nm) of this layer was then recorded after 2 hours.

Series [2] in a line: Testing of the NIR absorbers in yellow heatset offset printing ink, printed on paper. The format is physicochemical. Conditions: 0.5% by weight in commercial yellow heatset offset printing ink. As for the experimental part:
In each case 0.5% by weight of the absorber A1 or A2 not according to the invention was added to a commercial yellow heatset offset printing ink, and the mixtures were thoroughly stirred.
Samples of the inks obtained were printed on paper.
The procedure was as in the comparative example, except that in each case 0.5% by weight of the novel NIR absorber B2 or B4 was used.

Regarding `CCN1/C(=C/C=C2\CCC(/C=C/C3=[N+](CC)c4ccccc4C3(C)C)=C2Cl)C(C)(C)c2ccccc21` [Compound A2], in series [1], the “extinction E at 810 nm” value is less than 0.01. Further, the “dissolution of NIR absorber in the offset ink” value in series [2] was “did not dissolve”.
The matching figures for `CCN1/C(=C/C=C2\CCC(/C=C/C3=[N+](CC)c4ccccc4C3(C)C)=C2Cl)C(C)(C)c2ccccc21` [Compound B4]: 0.83 and “dissolved completely”.
